# Measured values reported in patent US8486594B2, “P-terphenyl compound mixture and electrophotographic photoreceptors made by using the same” (Hodogaya Chemical Co., Ltd., priority 2006, dated 2013).
# How the values were obtained:
# [1] = Solubility in organic solvent (tetrahydrofuran); assay type: physicochemical; conditions: 25° C. tetrahydrofuran; % (weight/volume)
# Excerpt: [Solubility in Organic Solvent]
# The unit of solubility is % (weight/volume).
# [2] = Dissolution of charge-transporting agent in tetrahydrofuran solution of polycarbonate resin for charge-transporting layer; assay type: physicochemical; conditions: 12.2% tetrahydrofuran solution of polycarbonate resin (Yupilon Z), ultrasonic wave
# Protocol: The p-terphenyl compound mixture was completely dissolved by propagating an ultrasonic wave thereto. This solution was applied to the charge-generating layer with a wire-wound bar and dried at 110° C. and ordinary pressure for […] to form a charge-transporting layer having a thickness of 20 μm. Thus, Photoreceptor No. 1 was produced.
# Photoreceptor No. 6 was produced in the same manner as in Photoreceptor Example 1, except that the p-terphenyl compound singly synthesized as Compound No. 6 was used in place of the charge-transporting agent used in Photoreceptor Example 1.
# Photoreceptor No. 7 was produced in the same manner as in Photoreceptor Example 1, except that the p-terphenyl compound singly synthesized as Compound No. 9 was used in place of the charge-transporting agent used in Photoreceptor Example 1.
# The p-terphenyl compound mixture was completely dissolved by propagating an ultrasonic wave thereto. This solution was applied to the charge-generating layer with a wire-wound bar and dried at 110° C. and ordinary pressure for 30 minutes to form a charge-transporting layer having a thickness of 10 μm. Furthermore, a semitransparent metal electrode was formed on the charge-transporting layer by vapor deposition to produce Photoreceptor No. 8. […]
Solubility in tetrahydrofuran [1] [%],dissolution of charge-transporting agent in coating solution [2],Structure (SMILES)
25.0,,"Cc1ccc(N(c2ccccc2)c2ccc(-c3ccc(-c4ccc(N(c5ccccc5)c5ccc(C)cc5)cc4)cc3)cc2)cc1 [Compound No. 1, 4,4′-bis(4-methyldiphenylamino)-p-terphenyl]"
10.0,,"Cc1ccc(N(c2ccccc2)c2ccc(-c3ccc(-c4ccc(N(c5ccccc5)c5ccc(C)cc5C)cc4)cc3)cc2)c(C)c1 [Compound No. 4, 4,4′-bis(2,4-dimethyldiphenylamino)-p-terphenyl]"
2.0,did not dissolve,"Cc1ccc(N(c2ccc(C)cc2)c2ccc(-c3ccc(-c4ccc(N(c5ccc(C)cc5)c5ccc(C)cc5)cc4)cc3)cc2)cc1 [Compound No. 6, 4,4′-bis(4,4′-dimethyldiphenylamino)-p-terphenyl]"
2.0,did not dissolve,"c1ccc(N(c2ccccc2)c2ccc(-c3ccc(-c4ccc(N(c5ccccc5)c5ccccc5)cc4)cc3)cc2)cc1 [Compound No. 9, 4,4′-bis(diphenylamino)-p-terphenyl]"
